PubChem BioAssay (NCI)
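Step 1: Grow cells in 96-well plates. Step 2: Expose to compound for 48 hours at 5 concentrations. Step 3: Interpolate endpoints linearly; if unreached, use highest concentration. Abbreviation: GI50, concentration required for 50% inhibition of growth. TGI denotes the concentration required for complete inhibition of growth.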

Columns and labels:
Assay in all cases: NCI anticancer screen, dose series, 48 h; in the data active = GI50 below about 0.43 µM; inactive = the rest
786-0 renal = test system: 786-0 renal
DLD-1 colon = test system: DLD-1 colon
HCT-116 colon = test system: HCT-116 colon
KM20L2 colon = test system: KM20L2 colon
LXFL 529 NSCLC = test system: LXFL 529 NSCLC
M19-MEL melanoma = test system: M19-MEL melanoma
RXF-631 renal = test system: RXF-631 renal
SK-OV-3 ovarian = test system: SK-OV-3 ovarian
SNB-78 CNS = test system: SNB-78 CNS
UACC-62 melanoma = test system: UACC-62 melanoma
XF 498 CNS = test system: XF 498 CNS
PC-3 prostate = test system: PC-3 prostate
T-47D breast = test system: T-47D breast
DMS 273 small cell lung = test system: DMS 273 small cell lung
HOP-18 NSCLC = test system: HOP-18 NSCLC
NCI-H226 lung = test system: NCI-H226 lung

O=C1C(=O)c2ccccc2C(O)=C1CN(CCCl)CCCl
> 100 µM: TGI (786-0 renal) | TGI (DLD-1 colon) | TGI (HCT-116 colon) | TGI (KM20L2 colon) | TGI (LXFL 529 NSCLC) | TGI (M19-MEL melanoma) | TGI (RXF-631 renal) | TGI (SK-OV-3 ovarian) | TGI (SNB-78 CNS) | TGI (UACC-62 melanoma) | TGI (XF 498 CNS)

NC(CCP(=O)(O)CCC1C=CC=CC1)C(=O)O (configuration not stated)
> 100 µM: TGI (HCT-116 colon) | TGI (PC-3 prostate) | TGI (SK-OV-3 ovarian) | TGI (T-47D breast) | TGI (UACC-62 melanoma)

Nc1ccc2c3c(n(CCCCl)c(=O)c2c1)-c1cc2c(cc1C3=O)OCO2
inactive: GI50 (PC-3 prostate) > 100 µM | GI50 (SK-OV-3 ovarian) > 100 µM | GI50 (T-47D breast) > 100 µM | GI50 (UACC-62 melanoma) > 100 µM
> 100 µM: TGI (PC-3 prostate) | TGI (SK-OV-3 ovarian) | TGI (T-47D breast) | TGI (UACC-62 melanoma)

Cc1cccc2[s+]snc12
74.9 µM: TGI (DLD-1 colon)
> 92.5 µM: TGI (LXFL 529 NSCLC)
> 100 µM: TGI (786-0 renal) | TGI (DMS 273 small cell lung) | TGI (HCT-116 colon) | TGI (HOP-18 NSCLC) | TGI (KM20L2 colon) | TGI (M19-MEL melanoma) | TGI (NCI-H226 lung) | TGI (SK-OV-3 ovarian) | TGI (SNB-78 CNS) | TGI (UACC-62 melanoma) | TGI (XF 498 CNS)
43.4 µM: TGI (RXF-631 renal)

COc1cc(C2=C(C#N)C(N)OC3=C2COc2ccccc23)cc(OC)c1OC (configuration not stated)
43.5 µM: TGI (HCT-116 colon)
50.6 µM: TGI (PC-3 prostate)
> 100 µM: TGI (UACC-62 melanoma)
39.3 µM: TGI (SK-OV-3 ovarian)
91.1 µM: TGI (NCI-H226 lung)

COC1CC(OC2CCC3(C)C(CCC45CCC(C6=CC(=O)OC6)C(C)(CCC43)C5=O)C2)OC(C)C1O (configuration not stated)
> 100 µM: TGI (HCT-116 colon) | TGI (NCI-H226 lung) | TGI (PC-3 prostate) | TGI (SK-OV-3 ovarian) | TGI (T-47D breast) | TGI (UACC-62 melanoma)
64.8 µM: TGI (786-0 renal)

O=[N+]([O-])c1ccc(Nc2nc3ccccc3s2)cc1
> 100 µM: TGI (NCI-H226 lung)
58.7 µM: TGI (UACC-62 melanoma)
35.1 µM: TGI (PC-3 prostate)
14 µM: TGI (T-47D breast)

N=C(N)c1csc([C@@H]2O[C@H](CO)[C@@H](O)[C@H]2O)n1
> 100 µM: TGI (DLD-1 colon) | TGI (DMS 273 small cell lung) | TGI (HCT-116 colon) | TGI (HOP-18 NSCLC) | TGI (LXFL 529 NSCLC) | TGI (M19-MEL melanoma) | TGI (NCI-H226 lung) | TGI (RXF-631 renal) | TGI (SK-OV-3 ovarian) | TGI (SNB-78 CNS) | TGI (XF 498 CNS)

CCC(=O)NC(Nc1ccc(O)cc1)(C(F)(F)F)C(F)(F)F
> 100 µM: TGI (HCT-116 colon) | TGI (NCI-H226 lung) | TGI (SK-OV-3 ovarian) | TGI (T-47D breast) | TGI (UACC-62 melanoma)

c1cn2cc(-c3ccc4ncn(C5CCCCC5)c4c3)nc(-c3ccc4c(c3)ncn4C3CCCCC3)c2n1
4.69 µM: TGI (T-47D breast)
4.1 µM: TGI (SK-OV-3 ovarian)
inactive: GI50 (SK-OV-3 ovarian) 2.27 µM | GI50 (T-47D breast) 1.9 µM

CC(C)(C)[Si](C)(C)OCC1CCC(n2cnc3c(N)ncnc32)O1 (configuration not stated)
> 100 µM: TGI (HCT-116 colon) | TGI (NCI-H226 lung) | TGI (PC-3 prostate) | TGI (SK-OV-3 ovarian) | TGI (T-47D breast) | TGI (UACC-62 melanoma)

NNc1nc2ccccc2s1
> 100 µM: TGI (786-0 renal) | TGI (HCT-116 colon) | TGI (NCI-H226 lung) | TGI (PC-3 prostate) | TGI (T-47D breast) | TGI (UACC-62 melanoma)

CC12CCC(C(=O)N3CC=CCC3)(OC1=O)C2(C)C (configuration not stated)
> 100 µM: TGI (DLD-1 colon) | TGI (DMS 273 small cell lung) | TGI (HCT-116 colon) | TGI (HOP-18 NSCLC) | TGI (KM20L2 colon) | TGI (M19-MEL melanoma) | TGI (NCI-H226 lung) | TGI (SK-OV-3 ovarian) | TGI (SNB-78 CNS) | TGI (UACC-62 melanoma) | TGI (XF 498 CNS)
